Results from ChEMBL document CHEMBL1154398, “Synthesis and activity in enhancing long-term potentiation (LTP) of clausenamide stereoisomers” (2009).

What was measured:
Type in all cases: functional
[1] = Nootropic activity in hippocampus assessed as increase in amplitude of population spikes after 30 mins by long-term potentiation enhancement assay relative to control; parameters: concentration or dose not given beside the values
[2] = Nootropic activity in hippocampus assessed as increase in amplitude of population spikes after 15 mins by long-term potentiation enhancement assay relative to control; parameters: concentration or dose not given beside the values
[3] = Nootropic activity in hippocampus assessed as increase in amplitude of population spikes after 60 mins by long-term potentiation enhancement assay relative to control; parameters: concentration or dose not given beside the values
[4] = Nootropic activity in hippocampus assessed as increase in amplitude of population spikes for > 40 mins by long-term potentiation enhancement assay relative to control

Structure (SMILES) | Activity [1] [%] | Activity [2] [%] | Activity [3] [%] | Activity [4] [%]
CN1C(=O)[C@@H](O)[C@@H](c2ccccc2)[C@@H]1[C@@H](O)c1ccccc1 | -1.8 | -5.9 | -5.1 | –
CN1C(=O)[C@@H](O)[C@@H](c2ccccc2)[C@H]1[C@H](O)c1ccccc1 | 2.9 | -12.7 | 22.5 | –
CN1C(=O)[C@H](O)[C@H](c2ccccc2)[C@H]1[C@@H](O)c1ccccc1 | 10.1 | -3 | 21.7 | –
CN1C(=O)[C@@H](O)[C@H](c2ccccc2)[C@@H]1[C@H](O)c1ccccc1 | -8.8 | -2.2 | 17.3 | –
CN1C(=O)[C@H](O)[C@@H](c2ccccc2)[C@H]1[C@H](O)c1ccccc1 [(+)CLAUSENAMIDE] | 10.1 | -9.4 | 6.4 | –
CN1C(=O)[C@@H](O)[C@H](c2ccccc2)[C@H]1[C@H](O)c1ccccc1 | -34.5 | -18.2 | – | –
CN1C(=O)[C@@H](O)[C@@H](c2ccccc2)[C@H]1[C@@H](O)c1ccccc1 | 9.7 | 1.7 | 9.6 | –
CN1C(=O)[C@@H](O)[C@H](c2ccccc2)[C@@H]1[C@@H](O)c1ccccc1 | 38.5 | 31.8 | 58.1 | –
CN1C(=O)[C@@H](O)[C@H](c2ccccc2)[C@H]1[C@@H](O)c1ccccc1 | -8.1 | -9.4 | 18.2 | –
CN1C(=O)[C@H](O)[C@H](c2ccccc2)[C@@H]1[C@@H](O)c1ccccc1 | 41.2 | 26.2 | 105.4 | >30
CN1C(=O)[C@H](O)[C@@H](c2ccccc2)[C@@H]1[C@H](O)c1ccccc1 | -5.3 | 4.7 | -9.4 | –
CN1C(=O)[C@H](O)[C@@H](c2ccccc2)[C@H]1[C@@H](O)c1ccccc1 | 47.5 | 36 | 107.8 | >30
CN1C(=O)[C@H](O)[C@H](c2ccccc2)[C@H]1[C@H](O)c1ccccc1 | 50.9 | 35 | 92.3 | >30
CN1C(=O)[C@H](O)[C@@H](c2ccccc2)[C@@H]1[C@@H](O)c1ccccc1 [(+)NEOCLAUSENAMIDE] | -29.1 | -0.7 | -2.5 | –
CN1C(=O)[C@H](O)[C@H](c2ccccc2)[C@@H]1[C@H](O)c1ccccc1 | 0.3 | 7.2 | 5.4 | –
CN1C(=O)[C@@H](O)[C@@H](c2ccccc2)[C@@H]1[C@H](O)c1ccccc1 | -11.9 | -11.5 | -15.4 | –
